The source of these data is US9217157B2, “Recombinant influenza viruses and uses thereof” (Icahn School of Medicine at Mount Sinai, priority 2009, dated 2015).

In assay [1] the test system is NS1-GFP virus. The arrangement: species or system influenza A virus. The note with it: in vivo.
Assay [2] deals with NS1-GFP virus. The assay is classed as in vivo, influenza A virus.

In the case of `NC12CC3CC(CC(C3)C1)C2` [amantadine], in the assay on NS1-GFP virus [1], the “effect on NS1-GFP infection in different cell types, in words” value was “most effective in blocking infection of NK and B cells, but was less potent for other cell types”; the “prevention of infection in B and NK cells” value is listed as 3-4 fold; the “reduction in infection of CD11b+ CD11c+ cells” value came out at 50%; the “reduction in infection of epithelial (CD45-) cells” value was determined as 50%.
Regarding `CCOC(=O)C1=C[C@@H](OC(CC)CC)[C@H](NC(C)=O)[C@@H](N)C1` [oseltamivir], the “GFP fluorescence intensity of lungs lower than in untreated mice” value in the assay with NS1-GFP virus [2] (day 2 post-infection, 10^6 pfu, 50 mg/Kg once daily from day of infection) is 3 to 5 fold. Moreover, in the assay with NS1-GFP virus [2] (day 4 post infection, treatment from day of infection), the “spread of GFP signal in lungs, in words” value is recorded as “significantly restricted the spread of viral infection”. For the same compound, in the assay on NS1-GFP virus [2] (day 4 post infection, treatment started two days after infection (day+2)), the “GFP fluorescence signal in lungs vs no treatment, in words” value is on record as “no significant difference”. In addition, in the assay with NS1-GFP virus [1], the “effect on NS1-GFP infection in different cell types, in words” value is “dramatically reduced infection rate in all of the examined cell types”; the “number of infiltrating cells (inflammatory monocytes and neutrophils), in words” value is recorded as “dramatically lower than in amantadine treated mice”.
